This is an account of results in patent US20240327929A1, “DOSAGE REGIMEN FOR ADMINISTRATION OF BELZUTIFAN” (MERCK SHARP & DOHME LLC, priority 2021, published 2024).

The conditions of data set [1]: cited from earlier work.
The next data set has as its target T1, UGT2B17 (Homo sapiens, UniProt O75795).
T1 sequence (O75795 24-530): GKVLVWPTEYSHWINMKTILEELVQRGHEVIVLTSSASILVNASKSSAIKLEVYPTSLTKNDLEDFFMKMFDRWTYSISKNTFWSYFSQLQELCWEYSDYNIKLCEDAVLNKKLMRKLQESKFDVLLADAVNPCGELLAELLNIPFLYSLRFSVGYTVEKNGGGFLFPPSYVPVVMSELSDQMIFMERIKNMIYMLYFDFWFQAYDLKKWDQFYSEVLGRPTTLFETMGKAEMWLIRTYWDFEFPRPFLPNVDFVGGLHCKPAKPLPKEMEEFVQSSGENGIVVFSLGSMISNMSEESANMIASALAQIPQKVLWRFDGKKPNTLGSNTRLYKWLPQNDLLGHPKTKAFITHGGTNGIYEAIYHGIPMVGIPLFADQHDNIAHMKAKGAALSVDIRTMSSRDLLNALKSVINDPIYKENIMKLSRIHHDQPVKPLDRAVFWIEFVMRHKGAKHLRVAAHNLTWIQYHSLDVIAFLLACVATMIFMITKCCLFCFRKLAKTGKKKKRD

Data set [2] can be described thus: Effect of body weight on MK-6482 exposure (pooled Phase 1 mixed effects model). The note with it: for % Change in AUC (h*ng/mL) per 10 kg increase in body weight / % Change in Cmax (ng/mL) per 10 kg increase in body weight: model accounting for dose, formulation.
Experimental: Linear mixed effect model analyses were performed on the natural log transformed PK parameters from the four pooled Phase 1 studies, separately for AUC and Cmax. The model contained fixed effects of natural log transformed dose, drug formulation (old or new), enzyme phenotype determined from genotype, relevant additional covariates, and a random subject effect. UGT2B17 phenotype was considered as a categorical variable with dummy encoding for each phenotype (intermediate metabolizers (IM), poor metabolizers (PM)) that differed from the extensive metabolizer (EM) category). Similarly, CYP2C19 metabolizer status was considered as a categorical variable with dummy encoding for each phenotype (PM, IM, rapid metabolizers (RM) and ultra-rapid metabolizers (UM)) that differed from the EM category. Relevant covariates were selected under the null hypothesis from the following: disease (healthy vs patient), body weight (in kg), age, gender, and dose-by-body weight and dose-by-formulation interactions. Final models used to generate tables in this Example include log (dose), formulation (old/new), body weight (kg), and enzyme phenotype as variables.
Between- and within-subject random effects were modeled via terms Si and ϵij, respectively, and assumed to be normally distributed.
Presence of an interactive effect was tested using an F-test with Kenward-Roger denominator degrees of freedom for the fixed effects. As a descriptive measure, the effect of body weight on exposure was also calculated separately within each UGT2B17 group using a mixed effects model accounting for log(dose) and formulation only. […] For the overall estimate, model (1) was used.
The test system of a further data set is UGT2B17 and CYP2C19. Description: Pharmacogenetic analysis of pooled Phase 1 PK: combined UGT2B17 and CYP2C19 phenotype vs double EM. The note with it: model-based estimates.
Data set [3] is described as follows: Effect of dose and formulation on MK-6482 exposure (pooled Phase 1 mixed effects model). The note with it: human, in vivo. An excerpt: There are many important differences in patient composition between the trials. To note, MK-6482-001 was a first-in-human dose finding trial studying patients with advanced solid tumors or renal cell carcinoma (RCC), while MK-6482-002,-006, and-007 were PK trials conducted with (predominantly female) healthy volunteers. In addition, study-007 enrolled Japanese subjects based on specific CYP2C19 phenotypes; all other studies enrolled subjects without genotype-based selection criteria. Finally, the protocols differed in terms of belzutifan formulation given to trial subjects: subjects in protocols 001 and 002 were given one formulation of belzutifan, study 006 compared that formulation and a new formulations, enrolling all subjects to receive both the formulations, and study 007 patients only received the new formulation of MK-6482.

Setting [4] is: dose-escalation cohort, doses up to 160 mg once daily.

“And” between values parts separate entries of the source, which are not always exact repeats. Equal entries are not always repeated.

Experimental for UGT2B17 and CYP2C19: Linear mixed effect model analyses were performed on the natural log transformed PK parameters from the four pooled Phase 1 studies, separately for AUC and Cmax. The model contained fixed effects of natural log transformed dose, drug formulation (old or new), enzyme phenotype determined from genotype, relevant additional covariates, and a random subject effect. UGT2B17 phenotype was considered as a categorical variable with dummy encoding for each phenotype (intermediate metabolizers (IM), poor metabolizers (PM)) that differed from the extensive metabolizer (EM) category). […]
To understand the differences in exposure between different genetic phenotype categories, least square means were computed for each UGT2B17 phenotype, each CYP2C19 phenotype, and for each combination UGT2B17/CYP2C19 phenotype. […] Similar analyses were also conducted separately within each UGT2B17 phenotype group to quantify the difference in exposure between CYP2C19 phenotype groups separately for each UGT2B17 phenotype. […]
The Phase 1 PK endpoints analyzed were AUCo->following single dose (SD) administration and steady state AUCo-, following multiple dose (MD) administration pooled, as well as Cmax following SD administration and steady state Cmax following MD administration pooled. […]

Consider `CS(=O)(=O)c1ccc(Oc2cc(F)cc(C#N)c2)c2c1[C@H](O)[C@H](F)[C@@H]2F` [MK-6482, 3-[(1S,2S, 3R)-2,3-Difluoro-1-hydroxy-7-methylsulfonyl-indan-4-yl]oxy-5-fluoro-benzonitrile], for which, in data set [1] (setting [4]), the dose-limiting toxicities entry was “no dose-limiting toxicities occurred” and the maximum tolerated dose entry was “not reached”. Besides, the “most common adverse events” value in data set [1] (heavily pre-treated patients with ccRCC) is “anemia and hypoxia”. Further, the “metabolism (primary pathway and enzyme)” value on UGT2B17 is on record as “metabolized primarily by glucuronidation, catalyzed predominantly by UDP Glucuronosyltransferase Family 2 Member B17 (UGT2B17)”. Also, the “expected difference in exposure between extremes of body weight” value in data set [2] (41 kg vs 164 kg, independent of enzyme phenotype) is reported as roughly 2.9 fold. Further, in data set [2] (UGT2B17 EM), the “% Change in AUC (h*ng/mL) per 10 kg increase in body weight” value was −10.9% and the “% Change in Cmax (ng/mL) per 10 kg increase in body weight” value is on record as −6.4%. In data set [2] (UGT2B17 IM), the “% Change in AUC (h*ng/mL) per 10 kg increase in body weight” value is listed as −8.3% and the “% Change in Cmax (ng/mL) per 10 kg increase in body weight” value is listed as −7.8%. In data set [2] (UGT2B17 PM), the “% Change in AUC (h*ng/mL) per 10 kg increase in body weight” value is recorded as −15.5% and the “% Change in Cmax (ng/mL) per 10 kg increase in body weight” value is −4.5%. In data set [2] (overall, all subjects), the “decrease in AUC for every 10 kg increase in body weight” value was 9.2 (6.5, 12.0) % and 9.2%; the “decrease in Cmax for every 10 kg increase in body weight” value is listed as 7.0 (4.5, 9.5) %. In the data set with UGT2B17 and CYP2C19, the “exposure of PMs of both enzymes relative to EMs of both enzymes” value was “over four-fold”. Besides, the “effect of dose on Cmax, estimated coefficient of log(dose)” value in data set [3] is 0.90.
